From publication PMC6792352, “Limited Chemical Structural Diversity Found to Modulate Thyroid Hormone Receptor in the Tox21 Chemical Library” (Environmental Health Perspectives, 2019)
Counter-ions that a name gives are not always drawn. Like-named read-outs stand apart in the source and are kept apart here.

How the values were obtained:
[1] = system: GH3-TRE-Luc cell line; details: read-out: AC50 (uM) modified / 1000, viability, 1 nM T3 present, 24 h
[2] = in vitro; details: rat, gh3-tre-luc cells

Compound CC1CC(OC(=O)c2ccccc2O)CC(C)(C)C1 (stereo not drawn) [3,3,5-Trimethylcyclohexyl salicylate] has a CC50 ([1]; Tox21_110001=Tox21_111174) of 42.4 µM and a CC50 ([1]; Tox21_110001=Tox21_303082) of 72.7 µM.

O=S(=O)(O)c1ccc2c(N=Nc3ccc(S(=O)(=O)O)c4ccccc34)c(O)c(S(=O)(=O)O)cc2c1 [Amaranth] gave a CC50 ([1]; Tox21_110001=Tox21_112280) of 19.3 µM.

For O=C(CCl)c1ccc(Cl)cc1Cl [2,2',4'-Trichloroacetophenone], the CC50 ([1]; Tox21_110001=Tox21_113246) was 2.14 µM and the CC50 ([1]; Tox21_110001=Tox21_113461) was 4.54 µM.

Compound COc1ccc(CCN2CCC(Nc3nc4ccccc4n3Cc3ccc(F)cc3)CC2)cc1 [Astemizole] has a CC50 ([1]; Tox21_110001=Tox21_110680) of 4.42 µM and a CC50 ([1]; Tox21_110001=Tox21_200095) of 0.889 µM.

For O=c1[nH]cc(F)c(=O)[nH]1 [5-Fluorouracil], the CC50 ([1]; Tox21_110001=Tox21_202335) was 16.7 µM and the CC50 ([1]; Tox21_110001=Tox21_300112) was 30.2 µM.

With COc1ccc(C(=O)/C(Br)=C\C(=O)O)cc1 [Bromebric acid] the CC50 ([1]; Tox21_110001=Tox21_111900) was 31.6 µM.

For c1cnc2c(c1)ccc1cccnc12 [1,10-Phenanthroline hydrochloride hydrate], the CC50 ([1]; Tox21_110001=Tox21_301286) was 7.25 µM.

Compound COC(=O)Nc1nc2ccc(Sc3ccccc3)cc2[nH]1 [Fenbendazole] has a CC50 ([1]; Tox21_110001=Tox21_110649) of 0.23 µM and a CC50 ([1]; Tox21_110001=Tox21_301828) of 1.53 µM.

Work on [H]/N=C(\N/C(=N/[H])NCCCCCCNC(=N)NC(=N)Nc1ccc(Cl)cc1)Nc1ccc(Cl)cc1 [Chlorhexidine dihydrochloride] yielded a CC50 ([1]; Tox21_110001=Tox21_302689) of 5.24 µM.

In the case of NNc1nncc2ccccc12 [Hydralazine hydrochloride], the CC50 ([1]; Tox21_110001=Tox21_302496) is reported as 73.4 µM.

COc1ccc(CCN(C)CCCC(C#N)(c2ccc(OC)c(OC)c2)C(C)C)cc1OC (stereo not drawn) [Verapamil] showed a CC50 ([1]; Tox21_110001=Tox21_110300) of 23.2 µM.

For O=c1c(-c2ccc(O)cc2)coc2cc(O)cc(O)c12 [Genistein], the CC50 ([1]; Tox21_110001=Tox21_110161) was 24.6 µM, the CC50 ([1]; Tox21_110001=Tox21_201428) was 38.3 µM and the CC50 ([1]; Tox21_110001=Tox21_300585) was 57.7 µM.

Work on CCCOC(=O)c1cc(O)c(O)c(O)c1 [Propyl gallate] yielded a CC50 ([1]; Tox21_110001=Tox21_113531) of 32.9 µM, a CC50 ([1]; Tox21_110001=Tox21_202286) of 61.7 µM and a CC50 ([1]; Tox21_110001=Tox21_300060) of 72.8 µM.

Cc1cc(C(C)(C)C)c(O)c(C(C)(C)C)c1 [Butylated hydroxytoluene] showed a CC50 ([1]; Tox21_110001=Tox21_113537) of 42.9 µM and a CC50 ([1]; Tox21_110001=Tox21_201093) of 76.4 µM.

For CC(=O)OCC(=O)[C@@]1(O)CC[C@H]2[C@@H]3CCC4=CC(=O)CC[C@]4(C)C3=CC[C@@]21C [Anecortave acetate], the CC50 at 24 h ([2]; AC50 (uM) modified / 1000) was over 50 µM.

CO[C@H]1/C=C/O[C@@]2(C)Oc3c(C)c(O)c4c(O)c(c5c(nc6cc(C)ccn65)c4c3C2=O)NC(=O)/C(C)=C\C=C\[C@H](C)[C@H](O)[C@@H](C)[C@@H](O)[C@@H](C)[C@H](OC(C)=O)[C@@H]1C [Rifaximin] showed a CC50 at 24 h ([2]; AC50 (uM) modified / 1000) of over 50 µM.

With Cc1cc(C)nc(NS(=O)(=O)c2ccc(N)cc2)n1 [Sulfamethazine] the CC50 at 24 h ([2]; AC50 (uM) modified / 1000) was over 90 µM.

CCCCCCCCCCCCCCCCCC(=O)OCC(O)CO (stereo not drawn) [Glycerol 1-monostearate] gave a CC50 at 24 h ([2]; AC50 (uM) modified / 1000) of over 50 µM.

With CCOS(C)(=O)=O [Ethyl methanesulfonate] the CC50 at 24 h ([2]; AC50 (uM) modified / 1000) was over 90 µM.

With CC(C=O)Cc1ccc(C(C)C)cc1 (stereo not drawn) [Cyclamen aldehyde] the CC50 at 24 h ([2]; AC50 (uM) modified / 1000) was over 90 µM.

For CCCCC(CC)COC(=O)CS (stereo not drawn) [2-Ethylhexyl sulfanylacetate], the CC50 at 24 h ([2]; AC50 (uM) modified / 1000) was over 90 µM.

C[C@@H]1C[C@H]2[C@@H]3CCC4=CC(=O)C=C[C@]4(C)[C@@]3(Cl)[C@@H](O)C[C@]2(C)[C@@]1(OC(=O)c1ccco1)C(=O)CCl [Mometasone furoate] showed a CC50 at 24 h ([2]; AC50 (uM) modified / 1000) of over 20 µM.

Work on O=C1Nc2ccc(Cl)cc2[C@@](C#CC2CC2)(C(F)(F)F)O1 [Efavirenz] yielded a CC50 at 24 h ([2]; AC50 (uM) modified / 1000) of 31.4 µM.

With CCCCCCCCCO [1-Nonanol] the CC50 at 24 h ([2]; AC50 (uM) modified / 1000) was over 90 µM.

For COc1cccc(-c2ccc(/C=C\CN3CCCCCC3)cc2Cl)c1 [SR125047], the CC50 at 24 h ([2]; AC50 (uM) modified / 1000) was 17.7 µM.

With Nc1ccccc1C(=O)OCCc1ccccc1 [Phenethyl anthranilate] the CC50 at 24 h ([2]; AC50 (uM) modified / 1000, Tox21_110001=Tox21_202175, viability, 1 nM T3 present, 24 h) was over 90 µM.

Compound CCn1cc(C(=O)O)c(=O)c2cc3c(cc21)OCO3 [Oxolinic acid] has a CC50 at 24 h ([2]; AC50 (uM) modified / 1000) of over 90 µM.

CC(c1cc2ccccc2s1)N(O)C(N)=O (stereo not drawn) [Zileuton] gave a CC50 at 24 h ([2]; AC50 (uM) modified / 1000) of over 90 µM.

Compound NCCCN(CCO)CCO [2,2'-[(3-Aminopropyl)imino]diethanol] has a CC50 at 24 h ([2]; AC50 (uM) modified / 1000) of over 90 µM.

Compound CCc1ccc(C(=O)NN(C(=O)c2cc(C)cc(C)c2)C(C)(C)C)cc1 [Tebufenozide] has a CC50 at 24 h ([2]; AC50 (uM) modified / 1000) of 2.75 µM.

In the case of CN[C@@H](C)Cc1ccccc1 [S-(+)-Methamphetamine hydrochloride], the CC50 at 24 h ([2]; AC50 (uM) modified / 1000) is reported as over 90 µM.

Compound CC1(C)[C@H](C(=O)O[C@H](C#N)c2cccc(Oc3ccccc3)c2)[C@@H]1C=C(Cl)Cl [alpha-Cypermethrin] has a CC50 at 24 h ([2]; AC50 (uM) modified / 1000) of over 90 µM.

In the case of O=C=NCC1CCCC(CN=C=O)C1 (stereo not drawn) [1,3-Bis(isocyanatomethyl)cyclohexane], the CC50 at 24 h ([2]; AC50 (uM) modified / 1000) is reported as over 90 µM.

With O=S1OC[C@@H]2[C@H](CO1)[C@]1(Cl)C(Cl)=C(Cl)[C@@]2(Cl)C1(Cl)Cl (stereo partly drawn) [Endosulfan I] the CC50 at 24 h ([2]; AC50 (uM) modified / 1000, Tox21_110001=Tox21_301581, viability, 1 nM T3 present, 24 h) was 69.4 µM.

CCC(Cl)[N+](=O)[O-] (stereo not drawn) [1-Chloro-1-nitropropane] gave a CC50 at 24 h ([2]; AC50 (uM) modified / 1000) of over 100 µM.

CCCCNCC(O)c1ccc(O)cc1 (stereo not drawn) [Bamethan] gave a CC50 at 24 h ([2]; AC50 (uM) modified / 1000) of over 50 µM.

With COc1ccc2c(c1)c1c3n2CCN(C)C3=NCC1 [Metralindole] the CC50 at 24 h ([2]; AC50 (uM) modified / 1000) was over 50 µM.

For CC(C)COC(=O)c1ccc(O)cc1 [Isobutylparaben], the CC50 at 24 h ([2]; AC50 (uM) modified / 1000) was over 90 µM.

Compound CCOC(=O)[C@@H](C)Oc1ccc(Oc2nc3ccc(Cl)cc3o2)cc1 [Fenoxaprop-P-ethyl] has a CC50 at 24 h ([2]; AC50 (uM) modified / 1000) of over 90 µM.

CCCn1cc[n+](C)c1C [1,2-Dimethyl-3-propylimidazolium iodide] showed a CC50 at 24 h ([2]; AC50 (uM) modified / 1000) of over 90 µM.

Compound COC(=O)CC(C(C)=O)C(=O)OC (stereo not drawn) [Dimethyl acetylsuccinate] has a CC50 at 24 h ([2]; AC50 (uM) modified / 1000) of over 90 µM.

With O=C1c2cccc3c2[C@H](CCC3)CN1[C@@H]1CN2CCC1CC2 [Palonosetron hydrochloride] the CC50 at 24 h ([2]; AC50 (uM) modified / 1000) was 23.5 µM.

Work on COc1ccccc1/C=C/C=O [trans-2-Methoxycinnamaldehyde] yielded a CC50 at 24 h ([2]; AC50 (uM) modified / 1000) of over 90 µM.

Compound COCC(=O)O[C@]1(CCN(C)CCCc2nc3ccccc3[nH]2)CCc2cc(F)ccc2[C@@H]1C(C)C [Mibefradil dihydrochloride] has a CC50 at 24 h ([2]; AC50 (uM) modified / 1000) of 1.9 µM.

COc1ccc(NC(=O)CC(C)=O)cc1 [N-(4-Methoxyphenyl)-3-oxobutanamide] showed a CC50 at 24 h ([2]; AC50 (uM) modified / 1000) of over 90 µM.

Compound CCCCCCCCCCCCCCCCBr [1-Bromohexadecane] has a CC50 at 24 h ([2]; AC50 (uM) modified / 1000) of over 30 µM.

CC1(C)C(=O)C(C)(C)C1=O [2,2,4,4-Tetramethylcyclobutane-1,3-dione] gave a CC50 at 24 h ([2]; AC50 (uM) modified / 1000) of over 90 µM.

Work on O=C1C2CC3CC1CC(O)(C3)C2 [Idramantone] yielded a CC50 at 24 h ([2]; AC50 (uM) modified / 1000) of over 50 µM.

CC(C)(C)C(=O)NCCCC(=O)O [Pivagabine] gave a CC50 at 24 h ([2]; AC50 (uM) modified / 1000) of over 50 µM.

CCN(CC)CCOC(=O)C(c1ccccc1)C1CCCCC1 (stereo not drawn) [Drofenine hydrochloride] gave a CC50 at 24 h ([2]; AC50 (uM) modified / 1000) of 21.1 µM.

CNCc1ccc(NC(=O)c2c[nH]c3c2C(=O)CCC3)cc1 [CP-409092] showed a CC50 at 24 h ([2]; AC50 (uM) modified / 1000) of over 90 µM.

For C=Cc1ccccc1 [Styrene], the CC50 at 24 h ([2]; AC50 (uM) modified / 1000) was over 90 µM.

Work on CC(=O)N(CC(O)CN(C(C)=O)c1c(I)c(C(=O)NC[C@@H](O)CO)c(I)c(C(=O)NC[C@@H](O)CO)c1I)c1c(I)c(C(=O)NC[C@@H](O)CO)c(I)c(C(=O)NC[C@@H](O)CO)c1I [Iodixanol] yielded a CC50 at 24 h ([2]; AC50 (uM) modified / 1000) of over 20 µM.

Work on CCCOc1ccc(S(=O)(=O)N2CCN(CC)CC2)cc1-c1nc2c(CC)n(Cc3ccccn3)nc2c(=O)[nH]1 [UK-343664] yielded a CC50 at 24 h ([2]; AC50 (uM) modified / 1000) of over 90 µM.

In the case of CC(C)C(OC(=O)c1ccccc1)C(C)(C)COC(=O)c1ccccc1 (stereo not drawn) [2,2,4-Trimethylpentane-1,3-diyl dibenzoate], the CC50 at 24 h ([2]; AC50 (uM) modified / 1000) is reported as 76 µM.

COC(=O)CCCCCCCC(=O)OC [Dimethyl nonanedioate] showed a CC50 at 24 h ([2]; AC50 (uM) modified / 1000) of over 90 µM.

NC[C@@H]1CC[C@@H](N)[C@@H](O[C@H]2[C@H](O)[C@@H](O[C@H]3O[C@H](CO)[C@@H](O)[C@H](N)[C@H]3O)[C@H](N)C[C@@H]2N)O1 [Dibekacin] gave a CC50 at 24 h ([2]; AC50 (uM) modified / 1000) of over 50 µM.

In the case of CCCCCC=CCC1CC(=O)OC1=O (stereo not drawn) [2-Octen-1-ylsuccinic anhydride], the CC50 at 24 h ([2]; AC50 (uM) modified / 1000) is reported as over 90 µM.

In the case of O=C(O)Cc1cccc2ccccc12 [Potassium 1-naphthaleneacetate], the CC50 at 24 h ([2]; AC50 (uM) modified / 1000) is reported as over 90 µM.
